Earlier results in patent US11761043B2, “Machine assay and analysis for selecting antihypertensive drugs” (Geneticure Inc., priority 2014, dated 2023).

Columns and labels:
CYP2D6 [1] = conditions: individuals homozygous for adenine (AA) at rs3892097 vs subjects not homozygous AA
renin = conditions: cytosine (guanine) variant of renin rs12750834
CYP2D6 [2] = biological target: CYP2D6 (Homo sapiens, UniProt P10635); conditions: in vivo
Chain of CYP2D6 (Homo sapiens, UniProt P10635) (P10635 whole entry): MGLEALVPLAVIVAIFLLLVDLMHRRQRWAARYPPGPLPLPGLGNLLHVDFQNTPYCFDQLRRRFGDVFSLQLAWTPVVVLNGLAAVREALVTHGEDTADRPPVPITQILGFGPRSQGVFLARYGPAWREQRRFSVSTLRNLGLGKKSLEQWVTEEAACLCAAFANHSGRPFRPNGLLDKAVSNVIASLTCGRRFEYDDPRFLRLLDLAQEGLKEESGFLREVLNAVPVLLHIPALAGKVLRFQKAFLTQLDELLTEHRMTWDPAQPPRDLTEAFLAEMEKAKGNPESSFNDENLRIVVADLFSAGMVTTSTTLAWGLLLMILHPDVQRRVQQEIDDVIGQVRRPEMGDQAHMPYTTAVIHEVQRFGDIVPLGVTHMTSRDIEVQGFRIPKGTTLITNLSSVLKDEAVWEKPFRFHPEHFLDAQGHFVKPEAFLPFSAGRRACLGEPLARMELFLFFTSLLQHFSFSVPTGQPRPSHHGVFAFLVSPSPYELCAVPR

Compound | plasma levels after taking these drugs (CYP2D6 [1]) | also measured
CC(C)NCC(O)COc1cccc2ccccc12 (stereo not shown) [propranolol] | higher plasma levels | –
COCCc1ccc(OCC(O)CNC(C)C)cc1 (stereo not shown) [metoprolol] | higher plasma levels | –
CCCCC(=O)N(Cc1ccc(-c2ccccc2-c2nnn[nH]2)cc1)[C@H](C(=O)O)C(C)C [valsartan] | – | reduction in blood pressure upon administration (renin): greater reduction in blood pressure
COc1ccccc1OCCNCC(O)COc1cccc2[nH]c3ccccc3c12 (stereo not shown) [carvedilol] | – | requirement of CYP2D6 for metabolism (CYP2D6 [2]): do not require CYP2D6 for their metabolism
